This is an account of results in patent publication US11045519B2, “Arginine-rich polypeptide compositions and methods of using same” (UNM Rainforest Innovations, priority 2017, dated 2021).

In assay [1] the test system is HPV16 PsVs. Put plainly: Mouse cervicovaginal HPV16 PsV infection model (luciferase in vivo imaging). Details: species or system BALB/c mice. To be noted: 2 μM in 3% CMC, intravaginal, cytobrush abrasion, imaging 48 h after PsV, n=3. The source says:
FIG. 11. PolyR inhibits HPV16 infectivity in vivo. (A). Six-week-old to eight-week-old female BALB/c mice were exposed to HPV16 PsVs transducing Luciferase (5×10^8 infection units (IU)/animal). (B). Percent of in vivo infectivity represents % of infection calculated from luciferase readouts from panel A. Error bars represents SD n=3. Luciferase raw data (average radiance photons/s/cm^2) of polyR-untreated mice is considered as 100%.
Until recently, in vivo animal studies on infectivity of HPV were problematic, because productive papillomavirus infection is species-restricted and tissue-restricted, and traditional models use animal papillomaviruses in closely related or native host species. However, a recently developed mouse model of cervicovaginal infection using HPV16 PsVs has overcome such restrictions (Roberts et al., 2007. Nature Medicine 13:857-861). In the original study, 3% carboxymethylcellulose (CMC) was used to mimic the viscosity of a typical vaginal gel and determined that disruption of genital epithelium by chemical (Nonoxynol-9) or mechanical (using cytobrush) injury is crucial for efficient HPV PsV infection. Nonoxynol-9 (N-9) is a highly toxic strong non-ionic detergent that disturbs the normal architecture of animal and human genital epithelium. […] The average radiance per mouse was measured in photons/s/cm^2/sr for a set region (of equal dimensions) among mice.

The subject of assay [2] is HPV16 pseudovirions (PsVs). Put plainly: HPV16 PsV luciferase infectivity assay, HaCaT cells pretreated with peptide. The class given is cell-based. To be noted: 24 h.
Method: HaCaT cells were cultured in complete growing medium (CM; Dulbecco's modified Eagle's medium nutrient mixture F-12 HAM (Sigma-Aldrich, St. Louis, Mo.)) supplemented with 10% fetal bovine serum (FBS), amino acids (Sigma-Aldrich, St. Louis, Mo.), 2 mM L-glutamine, 100 U/ml penicillin and 1 μg/ml streptomycin (Sigma-Aldrich, St. Louis, Mo.), as previously described (Patterson et al., 2005. J Virol 79:6838-6847). Semi-confluent cells were pretreated for 30 minutes with arginine-rich peptides dissolved in CM (6 μM gp91dstat, gp91dstat (scramble), R9, and TAT, or 3 polyR) before the exposure to HaCaT cells and 300 vge/cell HPV16 pseudovirions (PsVs) packaging a luciferase reporter plasmid. Infectivity was scored after 24 hours of incubation at 37° C. (i.e., post infection) by Lumat LB9501 (Berthold Technologies GmbH & Co KG, Bad Wildbad, Germany) equipment, using the luciferase assay kit (Promega, Madison, Wis.) according to manufacturer's specification. Raw data were normalized to total cellular protein concentration. Graph summarizes triplicate treatments; error bars represent SEM.
Fifty percent inhibitory concentration (IC50) of HPV16 PsV infection of HaCaT cells by the compounds. For generation of an inhibitory concentration 50 (IC50) curves, cells were pretreated with the indicated concentration of arginine-rich peptides prior to HPV16 PsV exposure. Infectivity was scored after 24 hours of incubation at 37° C. and the data from two independent duplicate experiments were pooled and analyzed using non-linear regression (curve fit) function of PRISM software (GraphPad Software, Inc., LaJolla, Calif.).
Semi-confluent HaCaT cells maintained in CM, were pretreated for one hour with PrS dissolved in CM at the 0-5.8 μM concentrations before exposure to HPV16 PsVs (350 vge/cell). Infectivity was scored after 24 hours of incubation at 37° C. using a luminometer (Lumat LB9501, Berthold GmbH & Co., Bad Wildbad, Germany) and luciferase assay (Promega, Madison, Wis.) according to manufacturer's specification. Raw data were normalized to total cellular protein concentration.
For generation of an inhibitory concentration 50 (IC50) curve for PrS inhibition, data from two independent duplicate experiments was pooled and analyzed using the non-linear regression (curve fit) function of PRISM (GraphPad Software, Inc., La Jolla, Calif.).
3 μM PrS incubated for one hour at room temperature with 2 mg/ml high or low molecular weight HA in CM, prior to the addition to HaCaT cells. 350 vge/cell HPV16 PsVs were used for infection of cells in the presence or absence of PrS or HA:PrS complex. Infection was scored after 24 hours as described in FIG. 12.
HaCaT cells were pretreated with 6 μM concentrations of gp91dstat, gp91dstat (scramble), R9, or TAT, or 3 μM polyR. After 30 minutes of incubation at 37° C., cells were infected with HPV16 pseudovirions (PsVs) at a dose of 300 viral genome equivalents (vge)/cell, and the relative infectivity was quantified after 24 hours compared to infection in untreated cells (FIG. 1). Each treatment was performed in triplicate.
To evaluate the anti-HPV activity of PrS, HaCaT cells, a keratinocyte-derived cell line, was used as a model for analysis of HPV infection. […]
Infections were initiated using Luciferase-expressing HPV16 PsVs that were produced, isolated, and quantified as described previously (Surviladze et al., 2012. PLoS Pathogens 8: e1002519; Campos S K and Ozbun M A, 2009. PloS One 4:e4463). […]
In assay [3] the test system is HPV16 PsVs. Put plainly: Dissociation of cell-bound HPV16 PsVs from HaCaT cells (L1 immunoblot). To be noted: 3 μM added to HPV-bound HaCaT cells, 1 h 4° C. It is filed as cell-based. How it is done:
(A) HPV16 PsVs were bound to HaCaT cells (one hour at 4° C.), before the addition of […]. After a one-hour incubation at 4° C., unbound virus was washed out, cells were lysed and analyzed for the content of HPV L1 protein. (B) HaCaT cells were exposed to HPV 16 PsV at 4° C. in the absence of polyR, simultaneously with polyR (0 h), or one hour after polyR treatment (+1 h). After extensive washing with PBS, cells were lysed and analyzed for the content of HPV16 L1 protein.
FIG. 19. […] HPV16 PsVs were bound to HaCaT cells (one hour in cold), before the addition of 5 μM PrS. After a one-hour incubation at 4° C., unbound virus was washed out, cells were lysed, and HPV L1 protein content was measured as described in FIG. 16.
To determine whether polyR could cause HPV16 dissociation from cells, HPV16 PsVs were bound to HaCaT cells for one hour at 4° C. After washing away unbound virus, HPV-bound cells were incubated with 3 μM polyR for one hour at 4° C.; control cells were untreated. Cells were lysed and analyzed for HPV L1 protein content. […]
The post-attachment inhibitory effects of PrS could be due the displacement of capsids from the cell surface. […] After a one-hour incubation at 4° C., unbound virus was washed out, cells were lysed, and the HPV L1 protein content was analyzed.

Turning to poly-L-arginine [polyR], the “reduction of infection in vivo” value in assay [1] stood at 50%. The “inhibition of HPV16 PsV infection” value in assay [2] (3 μM, 30 min pretreatment of HaCaT cells, 300 vge/cell) was more than 98%. In assay [2] (pretreatment before PsV exposure, two independent duplicate experiments, read-out: IC50 of HPV16 PsV infection of HaCaT cells), the IC50 (commonly the concentration that gives 50% inhibition) came out at 19 nM. Besides, the “release of HPV16 from cell membrane” value in assay [3] is listed as “did not induce the release of HPV16 from the cell membrane”.
